In ChEMBL document CHEMBL4765272, “Design, synthesis and biological evaluation of tyrosine derivatives as Mcl-1 inhibitors” (Eur J Med Chem, 2020):
Calls of active or inactive are those of the source. The rule behind the calls is not given here.

Columns and labels:
[1] = Inhibition of 5-FAM-BH3 peptide binding to N-terminal His8-tagged human MCL-1 (209 to 327 residues)/mouse MCL-1 (152 to 189 residues) expressed in Escherichia coli BL21 (DE3) by fluorescence polarization assay
[2] = biological target: Bcl-2-like protein 1 (Homo sapiens) (UniProt Q07817); assay: Inhibition of 5-FAM-BH3 peptide binding to human N-terminal GST-tagged BCL-XL (1 to 212 residues) expressed in Escherichia coli BL21 (DE3) at 100 uM by fluorescence polarization assay relative to control
Chain of Bcl-2-like protein 1 (Homo sapiens) (Q07817 whole entry, the tested form may be a part, canonical isoform): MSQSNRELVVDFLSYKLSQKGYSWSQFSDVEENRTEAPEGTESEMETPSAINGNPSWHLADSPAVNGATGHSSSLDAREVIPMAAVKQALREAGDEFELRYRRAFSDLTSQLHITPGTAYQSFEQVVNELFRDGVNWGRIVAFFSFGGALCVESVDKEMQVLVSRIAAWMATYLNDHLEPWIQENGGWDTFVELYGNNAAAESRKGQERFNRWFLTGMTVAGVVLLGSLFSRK

Homo sapiens = organism: Homo sapiens; assay: Inhibition of 5-FAM-BH3 peptide binding to human N-terminal GST-tagged BCL-2 (1 to 34 residues)/BCL-XL (29 to 44 residues)/BCL-2 isoform 2 (92 to 207 residues) expressed in Escherichia coli BL21 (DE3) at 100 uM by fluorescence polarization assay relative to control
[3] = Antiproliferative activity against human KM3 cells incubated for 72 hrs by MTT assay; format: functional, cell-based; settings: KM3, 72 h
HepG2 [4] = assay: Antiproliferative activity against human HepG2 cells incubated for 72 hrs by MTT assay; format: functional, cell-based; settings: HepG2, 72 h
RPMI-8226 = assay: Antiproliferative activity against human RPMI-8226 cells incubated for 72 hrs by MTT assay; format: functional, cell-based; settings: RPMI-8226, 72 h
Jurkat = assay: Antiproliferative activity against human Jurkat cells incubated for 72 hrs by MTT assay; format: functional, cell-based
MOLT-4 = assay: Antiproliferative activity against human MOLT-4 cells incubated for 72 hrs by MTT assay; format: functional, cell-based; settings: MOLT-4, 72 h
PC-3 = assay: Antiproliferative activity against human PC-3 cells incubated for 72 hrs by MTT assay; format: functional, cell-based; settings: PC-3, 72 h
NCI-H1299 = assay: Antiproliferative activity against human NCI-H1299 cells incubated for 72 hrs by MTT assay; format: functional, cell-based; settings: NCI-H1299, 72 h
KM3 = assay: Induction of apoptosis in human KM3 cells measured after 48 hrs by Annexin V-FITC/propidium iodide staining based flow cytometry; format: functional, cell-based
HepG2 [5] = assay: Induction of apoptosis in human HepG2 cells measured after 48 hrs by Annexin V-FITC/propidium iodide staining based flow cytometry; format: functional, cell-based
[6] = Induction of apoptosis in human KM3 cells assessed as viable cells at 10 uM measured after 48 hrs by Annexin V-FITC/propidium iodide staining based flow cytometry (reference value: 96.24%); format: functional; settings: read-out: Activity
[7] = Induction of apoptosis in human KM3 cells assessed as early apoptotic cells at 10 uM measured after 48 hrs by Annexin V-FITC/propidium iodide staining based flow cytometry (reference value: 2.18%); format: functional
[8] = Induction of apoptosis in human KM3 cells assessed as late apoptotic cells at 10 uM measured after 48 hrs by Annexin V-FITC/propidium iodide staining based flow cytometry (reference value: 1.15%); format: functional
[9] = Induction of apoptosis in human KM3 cells assessed as necrotic cells at 10 uM measured after 48 hrs by Annexin V-FITC/propidium iodide staining based flow cytometry (reference value: 0.42%); format: functional
[10] = Induction of apoptosis in human KM3 cells assessed as viable cells at 20 uM measured after 48 hrs by Annexin V-FITC/propidium iodide staining based flow cytometry (reference value: 96.24%); format: functional; settings: read-out: Activity
[11] = Induction of apoptosis in human KM3 cells assessed as early apoptotic cells at 20 uM measured after 48 hrs by Annexin V-FITC/propidium iodide staining based flow cytometry (reference value: 2.18%); format: functional
[12] = Induction of apoptosis in human KM3 cells assessed as late apoptotic cells at 20 uM measured after 48 hrs by Annexin V-FITC/propidium iodide staining based flow cytometry (reference value: 1.15%); format: functional
[13] = Induction of apoptosis in human KM3 cells assessed as necrotic cells at 20 uM measured after 48 hrs by Annexin V-FITC/propidium iodide staining based flow cytometry (reference value: 0.42%); format: functional
HepG2 [14] = assay: Induction of apoptosis in human HepG2 cells assessed as viable cells at 10 uM measured after 48 hrs by Annexin V-FITC/propidium iodide staining based flow cytometry (reference value: 96.84%); format: functional; settings: read-out: Activity
HepG2 [15] = assay: Induction of apoptosis in human HepG2 cells assessed as early apoptotic cells at 10 uM measured after 48 hrs by Annexin V-FITC/propidium iodide staining based flow cytometry (reference value: 0.71%); format: functional
HepG2 [16] = assay: Induction of apoptosis in human HepG2 cells assessed as late apoptotic cells at 10 uM measured after 48 hrs by Annexin V-FITC/propidium iodide staining based flow cytometry (reference value: 1.93%); format: functional
HepG2 [17] = assay: Induction of apoptosis in human HepG2 cells assessed as necrotic cells at 10 uM measured after 48 hrs by Annexin V-FITC/propidium iodide staining based flow cytometry (reference value: 0.52%); format: functional
HepG2 [18] = assay: Induction of apoptosis in human HepG2 cells assessed as viable cells at 20 uM measured after 48 hrs by Annexin V-FITC/propidium iodide staining based flow cytometry (reference value: 96.84%); format: functional; settings: read-out: Activity
HepG2 [19] = assay: Induction of apoptosis in human HepG2 cells assessed as early apoptotic cells at 20 uM measured after 48 hrs by Annexin V-FITC/propidium iodide staining based flow cytometry (reference value: 0.71%); format: functional
HepG2 [20] = assay: Induction of apoptosis in human HepG2 cells assessed as late apoptotic cells at 20 uM measured after 48 hrs by Annexin V-FITC/propidium iodide staining based flow cytometry (reference value: 1.93%); format: functional
HepG2 [21] = assay: Induction of apoptosis in human HepG2 cells assessed as necrotic cells at 20 uM measured after 48 hrs by Annexin V-FITC/propidium iodide staining based flow cytometry (reference value: 0.52%); format: functional
HepG2 [22] = assay: Induction of apoptosis in human HepG2 cells measured after 48 hrs by TUNEL staining based fluorescence microscopy; format: functional, cell-based
HepG2 [23] = assay: Induction of apoptosis in human HepG2 cells transfected with siMcl-1 at 10 uM measured after 48 hrs by Annexin V-FITC/propidium iodide staining based flow cytometry; format: functional, cell-based
[24] = Inhibition of 5-FAM-BH3 peptide binding to human N-terminal GST-tagged BCL-2 (1 to 34 residues)/BCL-XL (29 to 44 residues)/BCL-2 isoform 2 (92 to 207 residues) expressed in Escherichia coli BL21 (DE3) by fluorescence polarization assay
HepG2 [25] = assay: Induction of apoptosis in human HepG2 cells at 10 to 20 uM measured after 48 hrs by TUNEL staining based fluorescence microscopy; format: functional, cell-based; settings: dose 10-20 µM

Row | SMILES | inhibition [2] | IC50 (HepG2 [4]) | IC50 (RPMI-8226) | IC50 (Jurkat) | IC50 (MOLT-4) | IC50 (PC-3) | IC50 (NCI-H1299) | Ki [1] | IC50 [3] | viability at 10 µM [6] | Activity [7] | Activity [8] | Activity [9] | viability at 20 µM [10] | Activity [11] | Activity [12] | Activity [13] | viability at 10 µM (HepG2 [14]) | Activity (HepG2 [15]) | Activity (HepG2 [16]) | other results
1 | O=C(O)CSc1cc(NS(=O)(=O)c2ccc(Br)cc2)c2ccccc2c1O | > 50% | 11.4 µM | 5.77 µM | 9.79 µM | 3.14 µM | 8.43 µM | 6.08 µM | 0.21 µM | 11.2 µM | 72.7% | 15.35% | 11.64% | 0.31% | 23.8% | 40.5% | 34.2% | 1.52% | 76.4% | 2.23% | 20.03% | Ki [24]: 11 µM; Activity (HepG2 [17]): 1.36%; viability at 20 µM (HepG2 [18]): 11%; Activity (HepG2 [19]): 2.44%; Activity (HepG2 [20]): 86.11%; Activity (HepG2 [21]): 0.45%; Activity (HepG2 [25]): Active
2 | Cc1ccc(CC(=O)N[C@@H](Cc2ccc(OCCOc3ccc(Cl)cc3)cc2)C(=O)NS(=O)(=O)c2ccc(Cl)c([N+](=O)[O-])c2)cc1 | – | – | – | – | – | – | – | 1.6 µM | – | – | – | – | – | – | – | – | – | – | – | – | –
3 | Cc1cc(OCCCOc2ccc(C[C@H](NC(=O)OC(C)(C)C)C(=O)NS(=O)(=O)c3ccc(Cl)c([N+](=O)[O-])c3)cc2)cc(C)c1Cl | – | – | – | – | – | – | – | 0.66 µM | – | – | – | – | – | – | – | – | – | – | – | – | –
4 | CC(C)(C)OC(=O)N[C@@H](Cc1cc(I)c(OCCOc2cccc3ccccc23)c(I)c1)C(=O)NS(=O)(=O)c1ccc(Cl)c([N+](=O)[O-])c1 | – | – | – | – | – | – | – | 1.4 µM | – | – | – | – | – | – | – | – | – | – | – | – | –

Further lines, with some results ahead:

Row | inhibition [2] | IC50 (HepG2 [4]) | IC50 (RPMI-8226) | IC50 (Jurkat) | IC50 (MOLT-4) | IC50 (PC-3) | IC50 (NCI-H1299) | SMILES | Ki [1] | IC50 [3] | viability at 10 µM [6] | Activity [7] | Activity [8] | Activity [9] | viability at 20 µM [10] | Activity [11] | Activity [12] | Activity [13] | viability at 10 µM (HepG2 [14]) | Activity (HepG2 [15]) | Activity (HepG2 [16]) | other results
5 | > 50% | 7.5 µM | 7.67 µM | 16.5 µM | 17.7 µM | 18.9 µM | 21.6 µM | Cc1ccc(CC(=O)N[C@@H](Cc2cc(Br)c(OCCOc3cccc4ccccc34)c(Br)c2)C(=O)NS(=O)(=O)c2ccc(NCCCc3ccccc3)c([N+](=O)[O-])c2)cc1 | 0.23 µM | 11.5 µM | 84.5% | 10.47% | 4.31% | 0.73% | 8.34% | 16.21% | 74.52% | 0.93% | 85.9% | 2.44% | 9.03% | inhibition (Homo sapiens): > 50%; Activity (KM3): Dose-dependent effect; Activity (HepG2 [5]): Dose-dependent effect; Activity (HepG2 [17]): 2.63%; viability at 20 µM (HepG2 [18]): 15.6%; Activity (HepG2 [19]): 2.38%; Activity (HepG2 [20]): 80.03%; Activity (HepG2 [21]): 2.04%; Activity (HepG2 [22]): Dose-dependent effect; Activity (HepG2 [23]): inactive
6 | > 50% | 11 µM | 8.61 µM | 21.2 µM | 19.7 µM | 9.71 µM | 22.9 µM | Cc1cc(OCCCCOc2ccc(C[C@H](NC(=O)OC(C)(C)C)C(=O)NS(=O)(=O)c3ccc(NCCCc4ccccc4)c([N+](=O)[O-])c3)cc2)cc(C)c1Cl | 0.26 µM | 9.7 µM | – | – | – | – | – | – | – | – | – | – | – | Ki [24]: 1.2 µM
7 | > 50% | 6.42 µM | 6.34 µM | 15.1 µM | 17.4 µM | 15.8 µM | 20.7 µM | Cc1cc(OCCCOc2ccc(C[C@H](NC(=O)OC(C)(C)C)C(=O)NS(=O)(=O)c3ccc(NCCCc4ccccc4)c([N+](=O)[O-])c3)cc2)cc(C)c1Cl | 0.18 µM | 8.25 µM | 82.3% | 12.11% | 4.94% | 0.66% | 12.9% | 20.71% | 64.31% | 2.09% | 88.6% | 2.24% | 7.18% | Ki [24]: 1.1 µM; Activity (KM3): Dose-dependent effect; Activity (HepG2 [5]): Dose-dependent effect; Activity (HepG2 [17]): 2.02%; viability at 20 µM (HepG2 [18]): 15.4%; Activity (HepG2 [19]): 3.4%; Activity (HepG2 [20]): 78.54%; Activity (HepG2 [21]): 2.64%; Activity (HepG2 [22]): Dose-dependent effect; Activity (HepG2 [23]): inactive
8 | > 50% | 12.7 µM | 7.35 µM | 17.2 µM | 18 µM | 18.2 µM | 21.5 µM | Cc1ccc(CC(=O)N[C@@H](Cc2cc(I)c(OCCOc3cccc4ccccc34)c(I)c2)C(=O)NS(=O)(=O)c2ccc(NCCCc3ccccc3)c([N+](=O)[O-])c2)cc1 | 0.21 µM | 8.26 µM | – | – | – | – | – | – | – | – | – | – | – | inhibition (Homo sapiens): > 50%
9 | > 50% | 11.7 µM | 7.61 µM | 13 µM | 13.9 µM | 14.3 µM | 12.9 µM | Cc1cc(OCCOc2ccc(C[C@H](NC(=O)c3ccccc3)C(=O)NS(=O)(=O)c3ccc(NCCCc4ccccc4)c([N+](=O)[O-])c3)cc2)cc(C)c1Cl | 0.27 µM | 7.46 µM | 83% | 10.52% | 5.52% | 1.01% | 11.9% | 17.71% | 68.68% | 1.73% | 82.3% | 0.87% | 11.72% | Ki [24]: 1.7 µM; Activity (KM3): Dose-dependent effect; Activity (HepG2 [5]): Dose-dependent effect; Activity (HepG2 [17]): 5.13%; viability at 20 µM (HepG2 [18]): 18.5%; Activity (HepG2 [19]): 2.25%; Activity (HepG2 [20]): 75.13%; Activity (HepG2 [21]): 4.13%
